Test results as given in PubChem BioAssay AID328 (DTP/NCI, 2004).
Where “and” joins values, the source holds several entries; their conditions need not be identical. Identical values can stand only once. Toxic doses and inconclusive results are not listed.

Tested on: BDF1 mice, P388 leukemia ip, median survival T/C
Assay: NCI In Vivo Anticancer Drug Screen. Data for tumor model P388 Leukemia (intraperitoneal) in B6D2F1 (BDF1) mice
Details: endpoint: median survival time, higher = longer survival
Method in brief: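 Read-out is survival of treated animals expressed relative to the vehicle group, as a T/C ratio.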

CC(C)[C@](O)(C(=O)OCC1=CC[N+]2([O-])CC[C@@H](O)[C@@H]12)[C@H](C)O (stereo partly drawn)
T/C (dose: 6.2 mg/kg/injection, schedule: Q01DX009 (ip), vehicle: water): 113 % of control
T/C (dose: 8.0 mg/kg/injection, schedule: Q03HX024 (ip), vehicle: water): 100 % of control
T/C (dose: 16.0 mg/kg/injection, schedule: Q03HX008 (ip), vehicle: saline): 100 % of control
T/C (dose: 16.0 mg/kg/injection, schedule: Q03HX008 (ip), vehicle: water): 95 % of control
T/C (dose: 16.0 mg/kg/injection, schedule: Q03HX016 (ip), vehicle: saline): 90 % of control
T/C (dose: 16.0 mg/kg/injection, schedule: Q03HX016 (ip), vehicle: water): 100 % of control
T/C (dose: 16.0 mg/kg/injection, schedule: Q03HX024 (ip), vehicle: saline): 90 % of control
T/C (dose: 16.0 mg/kg/injection, schedule: Q03HX024 (ip), vehicle: water): 90 % of control
T/C (dose: 25.0 mg/kg/injection, schedule: Q01DX009 (ip), vehicle: saline): 110 % of control
T/C (dose: 25.0 mg/kg/injection, schedule: Q01DX009 (ip), vehicle: water): 118 % of control
T/C (dose: 32.0 mg/kg/injection, schedule: Q03HX008 (ip), vehicle: saline): 105 % of control
T/C (dose: 32.0 mg/kg/injection, schedule: Q03HX008 (ip), vehicle: water): 100 % of control
T/C (dose: 32.0 mg/kg/injection, schedule: Q03HX016 (ip), vehicle: saline): 100 % of control
T/C (dose: 32.0 mg/kg/injection, schedule: Q03HX016 (ip), vehicle: water): 100 % of control
T/C (dose: 32.0 mg/kg/injection, schedule: Q03HX024 (ip), vehicle: saline): 100 % of control
T/C (dose: 32.0 mg/kg/injection, schedule: Q03HX024 (ip), vehicle: water): 100 % of control
T/C (dose: 64.0 mg/kg/injection, schedule: Q01DX009 (ip), vehicle: saline): 105 % of control
T/C (dose: 64.0 mg/kg/injection, schedule: Q03HX008 (ip), vehicle: saline): 100 % of control
T/C (dose: 64.0 mg/kg/injection, schedule: Q03HX008 (ip), vehicle: water): 100 % of control
T/C (dose: 64.0 mg/kg/injection, schedule: Q03HX016 (ip), vehicle: saline): 105 % of control
T/C (dose: 64.0 mg/kg/injection, schedule: Q03HX016 (ip), vehicle: water): 100 % of control
T/C (dose: 64.0 mg/kg/injection, schedule: Q03HX024 (ip), vehicle: saline): 105 % of control
T/C (dose: 64.0 mg/kg/injection, schedule: Q03HX024 (ip), vehicle: water): 95 % of control
T/C (dose: 64.0 mg/kg/injection, schedule: Q04DX003 (ip), vehicle: water): 100 % of control
T/C (dose: 100.0 mg/kg/injection, schedule: Q04DX002 (ip), vehicle: saline): 108 % of control
T/C (dose: 128.0 mg/kg/injection, schedule: Q01DX001 (ip), vehicle: saline): 95 % of control
T/C (dose: 128.0 mg/kg/injection, schedule: Q01DX009 (ip), vehicle: saline): 89 % of control
T/C (dose: 128.0 mg/kg/injection, schedule: Q01DX009 (sc), vehicle: water): 95 % of control
T/C (dose: 128.0 mg/kg/injection, schedule: Q03HX008 (ip), vehicle: saline): 95 % of control
T/C (dose: 128.0 mg/kg/injection, schedule: Q03HX016 (ip), vehicle: saline): 100 % of control
T/C (dose: 128.0 mg/kg/injection, schedule: Q03HX016 (ip), vehicle: water): 100 % of control
T/C (dose: 128.0 mg/kg/injection, schedule: Q03HX024 (ip), vehicle: saline): 105 % of control
T/C (dose: 128.0 mg/kg/injection, schedule: Q03HX024 (ip), vehicle: water): 100 % of control
T/C (dose: 128.0 mg/kg/injection, schedule: Q04DX003 (ip), vehicle: saline): 95 % of control
T/C (dose: 128.0 mg/kg/injection, schedule: Q04DX003 (ip), vehicle: water): 100 % of control
T/C (dose: 128.0 mg/kg/injection, schedule: Q08DX002 (ip), vehicle: saline): 90 % of control
T/C (dose: 200.0 mg/kg/injection, schedule: Q01DX001 (ip), vehicle: saline): 95 % of control
T/C (dose: 200.0 mg/kg/injection, schedule: Q01DX009 (ip), vehicle: other): 157 % of control
T/C (dose: 200.0 mg/kg/injection, schedule: Q04DX002 (ip), vehicle: saline): 100 % of control
T/C (dose: 250.0 mg/kg/injection, schedule: Q04DX003 (ip), vehicle: water): 154 % of control
T/C (dose: 256.0 mg/kg/injection, schedule: Q01DX001 (ip), vehicle: saline): 90 % of control
T/C (dose: 256.0 mg/kg/injection, schedule: Q01DX001 (ip), vehicle: water): 118 % of control
T/C (dose: 256.0 mg/kg/injection, schedule: Q01DX009 (ip), vehicle: saline): 96 % of control
T/C (dose: 256.0 mg/kg/injection, schedule: Q01DX009 (ip), vehicle: water): 154 % of control
T/C (dose: 256.0 mg/kg/injection, schedule: Q01DX009 (oral), vehicle: water): 90 % of control
T/C (dose: 256.0 mg/kg/injection, schedule: Q01DX009 (sc), vehicle: water): 100 % of control
T/C (dose: 256.0 mg/kg/injection, schedule: Q03HX008 (ip), vehicle: saline): 120 % of control
T/C (dose: 256.0 mg/kg/injection, schedule: Q03HX016 (ip), vehicle: saline): 105 % of control
T/C (dose: 256.0 mg/kg/injection, schedule: Q03HX024 (ip), vehicle: saline): 95 % of control
T/C (dose: 256.0 mg/kg/injection, schedule: Q04DX003 (ip), vehicle: saline): 100 % of control
T/C (dose: 256.0 mg/kg/injection, schedule: Q04DX003 (ip), vehicle: water): 104 % of control
T/C (dose: 288.0 mg/kg/injection, schedule: Q01DX009 (ip), vehicle: water): 159 % of control
T/C (dose: 360.0 mg/kg/injection, schedule: Q01DX009 (ip), vehicle: water): 175 % of control
T/C (dose: 400.0 mg/kg/injection, schedule: Q01DX009 (ip), vehicle: other): 105 % of control
T/C (dose: 500.0 mg/kg/injection, schedule: Q01DX001 (ip), vehicle: water): 154 % of control
T/C (dose: 500.0 mg/kg/injection, schedule: Q04DX003 (ip), vehicle: water): 172 % of control
T/C (dose: 500.0 mg/kg/injection, schedule: Q08DX002 (ip), vehicle: water): 163 % of control
T/C (dose: 512.0 mg/kg/injection, schedule: Q01DX001 (ip), vehicle: saline): 100 % of control
T/C (dose: 512.0 mg/kg/injection, schedule: Q01DX001 (ip), vehicle: water): 118 % of control
T/C (dose: 512.0 mg/kg/injection, schedule: Q01DX009 (ip), vehicle: saline): 100 % of control
T/C (dose: 512.0 mg/kg/injection, schedule: Q01DX009 (ip), vehicle: water): 172 % of control
T/C (dose: 512.0 mg/kg/injection, schedule: Q01DX009 (oral), vehicle: water): 95 % of control
T/C (dose: 512.0 mg/kg/injection, schedule: Q01DX009 (sc), vehicle: water): 90 % of control
T/C (dose: 512.0 mg/kg/injection, schedule: Q04DX003 (ip), vehicle: saline): 90 % of control
T/C (dose: 512.0 mg/kg/injection, schedule: Q04DX003 (ip), vehicle: water): 100 % of control
T/C (dose: 600.0 mg/kg/injection, schedule: Q01DX009 (ip), vehicle: water): 163 % of control and 169 % of control
T/C (dose: 750.0 mg/kg/injection, schedule: Q01DX005 (ip), vehicle: water): 100 % of control
T/C (dose: 800.0 mg/kg/injection, schedule: Q01DX001 (ip), vehicle: saline): 108 % of control
T/C (dose: 800.0 mg/kg/injection, schedule: Q01DX009 (ip), vehicle: other): 99 % of control
T/C (dose: 1000.0 mg/kg/injection, schedule: Q01DX001 (ip), vehicle: water): 154 % of control
T/C (dose: 1000.0 mg/kg/injection, schedule: Q04DX003 (ip), vehicle: water): 195 % of control
T/C (dose: 1000.0 mg/kg/injection, schedule: Q08DX002 (ip), vehicle: water): 177 % of control
T/C (dose: 1024.0 mg/kg/injection, schedule: Q01DX001 (ip), vehicle: saline): 100 % of control
T/C (dose: 1024.0 mg/kg/injection, schedule: Q01DX001 (ip), vehicle: water): 95 % of control
T/C (dose: 1024.0 mg/kg/injection, schedule: Q01DX009 (ip), vehicle: saline): 160 % of control
T/C (dose: 1024.0 mg/kg/injection, schedule: Q01DX009 (oral), vehicle: water): 90 % of control
T/C (dose: 1024.0 mg/kg/injection, schedule: Q01DX009 (sc), vehicle: water): 90 % of control
T/C (dose: 1024.0 mg/kg/injection, schedule: Q04DX003 (ip), vehicle: saline): 110 % of control
T/C (dose: 1024.0 mg/kg/injection, schedule: Q04DX003 (ip), vehicle: water): 100 % of control
T/C (dose: 1024.0 mg/kg/injection, schedule: Q08DX002 (ip), vehicle: saline): 100 % of control
T/C (dose: 1024.0 mg/kg/injection, schedule: Q08DX002 (ip), vehicle: water): 95 % of control
T/C (dose: 1500.0 mg/kg/injection, schedule: Q01DX001 (ip), vehicle: water): 163 % of control
T/C (dose: 1500.0 mg/kg/injection, schedule: Q08DX002 (ip), vehicle: water): 181 % of control
T/C (dose: 2048.0 mg/kg/injection, schedule: Q01DX001 (ip), vehicle: saline): 120 % of control
T/C (dose: 2048.0 mg/kg/injection, schedule: Q01DX001 (ip), vehicle: water): 113 % of control
T/C (dose: 2048.0 mg/kg/injection, schedule: Q01DX009 (oral), vehicle: water): 90 % of control
T/C (dose: 2048.0 mg/kg/injection, schedule: Q08DX002 (ip), vehicle: saline): 105 % of control
T/C (dose: 2048.0 mg/kg/injection, schedule: Q08DX002 (ip), vehicle: water): 118 % of control
